The test system of this assay is PC-12. The assay is described as follows: Neuroprotective activity against H2O2-induced cytotoxicity in rat PC-12 cells assessed as cell viability at 12.5 uM pretreated for 24 hrs followed by H2O2 challenge and measured after 24 hrs by MTT assay (reference value: 52.81 +/- 6%). The note with it: time 48 hrs, read-out: Activity. The assay is classed as functional.
For `CCN(CC)C(=O)/C=C/C=C/c1ccc2c(c1)OCO2`, the viability at 12.5 µM was determined as 31.4%.

For the compound `O=C(/C=C/C=C/c1cccc(O)c1)N1CCCCC1`, the viability at 12.5 µM came out at 75.7%. Then `O=C(/C=C/C=C/c1ccc(O)cc1)N1CCCCC1`, with 48.4%; and `O=C(/C=C/c1ccc(N2CCNCC2)cc1)N1CCCCC1`, with 72.6%. `O=C(/C=C/C=C/c1cccs1)N1CCCCC1`: the viability at 12.5 µM stood at 57.9%. Then `CCN(CC)C(=O)/C=C/c1ccc(N2CCCC2)cc1`, with 26.1%; and `CCN(CC)C(=O)/C=C/c1ccc(N2CCNCC2)cc1`, with 69.1%. Then `CCNC(=O)/C=C/C=C/c1ccccc1OC`, with 74.6%; and `COc1cccc(/C=C/C=C/C(=O)N2CCCCC2)c1`, with 58.1%. Then `O=C(/C=C/c1ccc(N2CCCC2)cc1)N1CCCCC1`, with 30.6%; and `CCNC(=O)/C=C/c1cccs1`, with 56.5%; and `CCN(CC)C(=O)/C=C/c1ccccc1OC`, with 78.2%. `CCN(CC)C(=O)/C=C/c1ccc2c(c1)OCO2`: the viability at 12.5 µM was determined as 71.7%. Next, `CCNC(=O)/C=C/c1ccc(N2CCNCC2)cc1`: 42.7%. Take `O=C(/C=C/C=C/c1ccc(N2CCOCC2)cc1)N1CCCCC1`: the viability at 12.5 µM stood at 20.2%. Next, `COc1ccc(/C=C/C=C/C(=O)N2CCCCC2)cc1`: 26.5%; `O=C(/C=C/C=C/c1ccc2c(c1)OCO2)N1CCCCC1` [PIPERINE]: 55.7%. Next, `CCNC(=O)/C=C/c1ccc2c(c1)OCO2`: 69.7%; `CCNC(=O)/C=C/C=C/c1ccc2c(c1)OCO2`: 22.3%. Then `CCN(CC)C(=O)/C=C/C=C/c1ccc(O)cc1`, with 67.3%. As to `O=C(/C=C/c1ccc2c(c1)OCO2)N1CCCCC1` [ILEPCIMIDE], the viability at 12.5 µM worked out at 77%. Next, `O=C(/C=C/C=C/c1ccc(N2CCCCC2)cc1)N1CCCCC1`: 18.9%; `CCN(CC)C(=O)/C=C/C=C/c1cccn1C`: 67.8%. Consider `CC(C)(C)c1cc(O)ccc1O` [E319], for which the viability at 12.5 µM stood at 70.4%. Then `CCNC(=O)/C=C/C=C/c1ccc(O)cc1`, with 69.1%; and `O=C(/C=C/c1cccs1)N1CCCCC1`, with 50.4%; and `COc1ccccc1/C=C/C(=O)N1CCCCC1`, with 81.3%.

In the case of `O=C(/C=C/C=C/c1ccco1)N1CCCCC1`, the viability at 12.5 µM was determined as 33.3%. Take `O=C(/C=C/C=C/c1ccccc1O)N1CCCCC1`: the viability at 12.5 µM is 68.8%.

With `O=C(/C=C/C=C/c1ccc(N2CCCC2)cc1)N1CCCCC1`, the viability at 12.5 µM stood at 37.2%.

`CCNC(=O)/C=C/c1ccccc1OC`: the viability at 12.5 µM came to 68.5%. In the case of `O=C(/C=C/C=C/c1ccc(-c2ccccc2)cc1)N1CCCCC1`, the viability at 12.5 µM stood at 15.2%. Regarding `CCN(CC)C(=O)/C=C/C=C/c1ccccc1OC`, the viability at 12.5 µM worked out at 80.7%.

As to `CCN(CC)C(=O)/C=C/c1cccs1`, the viability at 12.5 µM stood at 54.3%.

The values above are taken from ChEMBL document CHEMBL4765320, “Identification and optimization of piperine analogues as neuroprotective agents for the treatment of Parkinson's disease via the activation of Nrf2/keap1 pathway” (Eur J Med Chem, 2020).
